# From PubChem BioAssay (NCI)
#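 A five-concentration, 48-hour dose response in 96-well plates underlies each endpoint, interpolated linearly between surrounding concentrations. At the TGI there is no net growth.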
# Experiments:
# Assay in all cases: DTP human tumour cell line panel, 48 h
# 786-0 renal = test system: 786-0 renal
# A498 renal = test system: A498 renal
# A549 NSCLC = test system: A549 NSCLC
# ACHN renal = test system: ACHN renal
# CAKI-1 renal = test system: CAKI-1 renal
# CCRF-CEM leukemia = test system: CCRF-CEM leukemia
# COLO 205 colon = test system: COLO 205 colon
# DLD-1 colon = test system: DLD-1 colon
# DMS 114 small cell lung = test system: DMS 114 small cell lung
# EKVX NSCLC = test system: EKVX NSCLC
# HCC-2998 colon = test system: HCC-2998 colon
# HCT-116 colon = test system: HCT-116 colon
# HCT-15 colon = test system: HCT-15 colon
# HL-60(TB) leukemia = test system: HL-60(TB) leukemia
# HOP-18 NSCLC = test system: HOP-18 NSCLC
# HOP-62 NSCLC = test system: HOP-62 NSCLC
# HOP-92 NSCLC = test system: HOP-92 NSCLC
# HT29 colon = test system: HT29 colon
# IGROV1 ovarian = test system: IGROV1 ovarian
# K-562 leukemia = test system: K-562 leukemia
# KM12 colon = test system: KM12 colon
# KM20L2 colon = test system: KM20L2 colon
# LOX IMVI melanoma = test system: LOX IMVI melanoma
# LXFL 529 NSCLC = test system: LXFL 529 NSCLC
# M14 melanoma = test system: M14 melanoma
# M19-MEL melanoma = test system: M19-MEL melanoma
# MALME-3M melanoma = test system: MALME-3M melanoma
# MOLT-4 leukemia = test system: MOLT-4 leukemia
# NCI-H226 lung = test system: NCI-H226 lung
# NCI-H23 lung = test system: NCI-H23 lung
# NCI-H460 lung = test system: NCI-H460 lung
# OVCAR-3 ovarian = test system: OVCAR-3 ovarian
# OVCAR-4 ovarian = test system: OVCAR-4 ovarian
# OVCAR-5 ovarian = test system: OVCAR-5 ovarian
# OVCAR-8 ovarian = test system: OVCAR-8 ovarian
# RPMI-8226 leukemia = test system: RPMI-8226 leukemia
# RXF 393 renal = test system: RXF 393 renal
# SF-268 CNS = test system: SF-268 CNS
# SF-295 CNS = test system: SF-295 CNS
# SF-539 CNS = test system: SF-539 CNS
# SK-MEL-28 melanoma = test system: SK-MEL-28 melanoma
# SK-MEL-5 melanoma = test system: SK-MEL-5 melanoma
# SN12C renal = test system: SN12C renal
# SNB-19 CNS = test system: SNB-19 CNS
# SNB-75 CNS = test system: SNB-75 CNS
# SNB-78 CNS = test system: SNB-78 CNS
# SR leukemia = test system: SR leukemia
# SW-620 colon = test system: SW-620 colon
# TK-10 renal = test system: TK-10 renal
# U251 CNS = test system: U251 CNS
# UACC-257 melanoma = test system: UACC-257 melanoma
# UACC-62 melanoma = test system: UACC-62 melanoma
# XF 498 CNS = test system: XF 498 CNS
# SK-MEL-2 melanoma = test system: SK-MEL-2 melanoma
# UO-31 renal = test system: UO-31 renal
# DMS 273 small cell lung = test system: DMS 273 small cell lung
# SK-OV-3 ovarian = test system: SK-OV-3 ovarian
smiles,measurement,setting,value
O=C(Nc1ccc(Cl)cc1C(F)(F)F)C(=O)C1CCCS1(=O)=O (stereo not drawn),TGI,786-0 renal,> 100 µM
same,TGI,A498 renal,> 100 µM
same,TGI,A549 NSCLC,> 100 µM
same,TGI,ACHN renal,> 100 µM
same,TGI,CAKI-1 renal,> 100 µM
same,TGI,CCRF-CEM leukemia,> 100 µM
same,TGI,COLO 205 colon,> 100 µM
same,TGI,DLD-1 colon,> 100 µM
same,TGI,DMS 114 small cell lung,> 100 µM
same,TGI,EKVX NSCLC,> 100 µM
same,TGI,HCC-2998 colon,> 100 µM
same,TGI,HCT-116 colon,> 100 µM
same,TGI,HCT-15 colon,> 100 µM
same,TGI,HL-60(TB) leukemia,> 100 µM
same,TGI,HOP-18 NSCLC,> 100 µM
same,TGI,HOP-62 NSCLC,> 100 µM
same,TGI,HOP-92 NSCLC,> 10 µM
same,TGI,HT29 colon,> 100 µM
same,TGI,IGROV1 ovarian,> 10 µM
same,TGI,K-562 leukemia,> 100 µM
same,TGI,KM12 colon,> 100 µM
same,TGI,KM20L2 colon,> 100 µM
same,TGI,LOX IMVI melanoma,> 100 µM
same,TGI,LXFL 529 NSCLC,> 100 µM
same,TGI,M14 melanoma,> 100 µM
same,TGI,M19-MEL melanoma,> 100 µM
same,TGI,MALME-3M melanoma,> 100 µM
same,TGI,MOLT-4 leukemia,> 100 µM
same,TGI,NCI-H226 lung,> 100 µM
same,TGI,NCI-H23 lung,> 100 µM
same,TGI,NCI-H460 lung,> 100 µM
same,TGI,OVCAR-3 ovarian,> 100 µM
same,TGI,OVCAR-4 ovarian,> 100 µM
same,TGI,OVCAR-5 ovarian,> 100 µM
same,TGI,OVCAR-8 ovarian,> 100 µM
same,TGI,RPMI-8226 leukemia,> 100 µM
same,TGI,RXF 393 renal,> 100 µM
same,TGI,SF-268 CNS,> 100 µM
same,TGI,SF-295 CNS,> 100 µM
same,TGI,SF-539 CNS,> 100 µM
same,TGI,SK-MEL-28 melanoma,> 100 µM
same,TGI,SK-MEL-5 melanoma,> 100 µM
same,TGI,SN12C renal,> 100 µM
same,TGI,SNB-19 CNS,> 100 µM
same,TGI,SNB-75 CNS,> 100 µM
same,TGI,SNB-78 CNS,> 100 µM
same,TGI,SR leukemia,> 100 µM
same,TGI,SW-620 colon,> 10 µM
same,TGI,TK-10 renal,> 100 µM
same,TGI,U251 CNS,> 100 µM
same,TGI,UACC-257 melanoma,> 100 µM
same,TGI,UACC-62 melanoma,> 100 µM
same,TGI,XF 498 CNS,> 100 µM
N#CC(/C(CCC(=O)Nc1ccc(Cl)cc1)=N/NC(=O)c1cc2ccccc2cc1O)c1ccccc1 (stereo not drawn),TGI,786-0 renal,> 100 µM
same,TGI,A549 NSCLC,> 100 µM
same,TGI,ACHN renal,> 100 µM
same,TGI,CCRF-CEM leukemia,49.4 µM
same,TGI,COLO 205 colon,> 100 µM
same,TGI,DLD-1 colon,> 100 µM
same,TGI,DMS 114 small cell lung,87.7 µM
same,TGI,EKVX NSCLC,> 100 µM
same,TGI,HCC-2998 colon,> 100 µM
same,TGI,HCT-116 colon,> 100 µM
same,TGI,HL-60(TB) leukemia,33 µM
same,TGI,HOP-18 NSCLC,89.8 µM
same,TGI,HOP-62 NSCLC,85.3 µM
same,TGI,HOP-92 NSCLC,> 100 µM
same,TGI,HT29 colon,> 100 µM
same,TGI,IGROV1 ovarian,> 100 µM
same,TGI,KM12 colon,> 100 µM
same,TGI,KM20L2 colon,> 100 µM
same,TGI,LOX IMVI melanoma,73.1 µM
same,TGI,LXFL 529 NSCLC,> 100 µM
same,TGI,M14 melanoma,> 100 µM
same,TGI,M19-MEL melanoma,> 100 µM
same,TGI,MALME-3M melanoma,> 100 µM
same,TGI,MOLT-4 leukemia,94.9 µM
same,TGI,NCI-H226 lung,> 100 µM
same,TGI,NCI-H23 lung,> 100 µM
same,TGI,NCI-H460 lung,> 100 µM
same,TGI,OVCAR-3 ovarian,> 100 µM
same,TGI,OVCAR-4 ovarian,> 100 µM
same,TGI,OVCAR-5 ovarian,60.6 µM
same,TGI,OVCAR-8 ovarian,> 100 µM
same,TGI,RPMI-8226 leukemia,> 100 µM
same,TGI,RXF 393 renal,> 100 µM
same,TGI,SF-268 CNS,> 100 µM
same,TGI,SF-295 CNS,> 100 µM
same,TGI,SK-MEL-2 melanoma,61.2 µM
same,TGI,SK-MEL-28 melanoma,> 100 µM
same,TGI,SK-MEL-5 melanoma,40.6 µM
same,TGI,SN12C renal,> 100 µM
same,TGI,SNB-19 CNS,> 100 µM
same,TGI,SNB-75 CNS,> 100 µM
same,TGI,SNB-78 CNS,> 100 µM
same,TGI,SW-620 colon,> 100 µM
same,TGI,TK-10 renal,> 100 µM
same,TGI,U251 CNS,> 100 µM
same,TGI,UACC-257 melanoma,> 100 µM
same,TGI,UACC-62 melanoma,> 100 µM
same,TGI,UO-31 renal,> 100 µM
same,TGI,XF 498 CNS,> 100 µM
c1ccc(-c2nc3ccccc3nc2SCc2cccnc2)cc1,TGI,786-0 renal,> 100 µM
same,TGI,A549 NSCLC,> 100 µM
same,TGI,ACHN renal,> 100 µM
same,TGI,CCRF-CEM leukemia,> 100 µM
same,TGI,COLO 205 colon,> 100 µM
same,TGI,DMS 114 small cell lung,> 100 µM
same,TGI,DMS 273 small cell lung,> 100 µM
same,TGI,EKVX NSCLC,> 100 µM
same,TGI,HCT-116 colon,> 100 µM
same,TGI,HL-60(TB) leukemia,> 100 µM
same,TGI,HOP-18 NSCLC,> 100 µM
same,TGI,HOP-92 NSCLC,> 100 µM
same,TGI,HT29 colon,> 100 µM
same,TGI,K-562 leukemia,> 100 µM
same,TGI,LXFL 529 NSCLC,> 100 µM
same,TGI,M14 melanoma,> 100 µM
same,TGI,MALME-3M melanoma,> 100 µM
same,TGI,MOLT-4 leukemia,> 100 µM
same,TGI,NCI-H226 lung,> 100 µM
same,TGI,NCI-H23 lung,> 100 µM
same,TGI,OVCAR-3 ovarian,> 100 µM
same,TGI,OVCAR-4 ovarian,> 100 µM
same,TGI,OVCAR-8 ovarian,> 100 µM
same,TGI,RPMI-8226 leukemia,> 100 µM
same,TGI,SF-268 CNS,> 100 µM
same,TGI,SF-295 CNS,> 100 µM
same,TGI,SK-MEL-28 melanoma,> 100 µM
same,TGI,SK-OV-3 ovarian,> 100 µM
same,TGI,SN12C renal,> 100 µM
same,TGI,SNB-19 CNS,> 100 µM
same,TGI,SNB-75 CNS,> 100 µM
same,TGI,SNB-78 CNS,> 100 µM
same,TGI,U251 CNS,> 100 µM
same,TGI,UACC-257 melanoma,> 100 µM
same,TGI,UO-31 renal,> 100 µM
same,TGI,XF 498 CNS,> 100 µM
